Measurements: US8471032B2, “Benzimidazole compound in crystal form and salt thereof” (Mitsubishi Tanabe Pharma Corporation, priority 2008, dated 2013)
In brackets after ≈: the same amount, converted by molar mass.

Columns and labels:
[1] = Water adsorption measurement (DVS-1 water adsorption apparatus), index of hygroscopicity; format: physicochemical; settings: relative humidity changed within 0% to 95%; amount of change based on the weight at relative humidity 0%
Procedure: The water adsorption measurement, which becomes an index of hygroscopicity, was performed using a DVS-1 type water adsorption apparatus (manufactured by SMS) under the following conditions. Using a sample (about 6-12 mg), the relative humidity was changed within the relative humidity range of 0% to 95%. The weight change was recorded for each predetermined relative humidity, and converted to the amount of change (%) based on the weight at relative humidity 0%. […] As to this compound, the zero point was amended based on the moisture value of the sample measured by the Karl Fischer's method, and the weight change was converted to the amount of change (%).

[2] = Solubility in water at 37° C. (HPLC, calibration curve method); format: physicochemical; settings: shaken for 4 hr
Procedure: The solubility of the obtained compounds in water at 37° C. was measured under the following conditions. An adequate amount of each sample was taken, water was added to each sample, and the mixture was shaken at 37° C. for 4 hr. The supernatant was filtered through a filter, and diluted with a mixed solution of TFA/acetonitrile/water=(0.05:30:70) as necessary to give a sample solution. The concentration (mg/ml) of the sample solution was measured by high performance liquid chromatography (HPLC) with a calibration curve method, and taken as the solubility in water at 37° C.
apparatus: HPLC System Class-VP (SHIMADZU Corporation)
detector: photodiode array detector
measurement wavelength range: 200-370 nm
column: Inertsil ODS-3V (4.6 mm9×150 mm)
column temperature: 40° C.
mobile phase: SOLUTION A 0.05% aqueous trifluoroacetic acid solution • SOLUTION B 0.05% trifluoroacetic acid-acetonitrile solution • A:B=70:30 (Isocratic Elution)

SMILES | weight increase (water adsorption / moisture absorption) [1] [%] | solubility in water [2] [µg/mL]
CNC(=O)Cn1c(=O)n(C2CCN([C@@H]3Cc4cccc5cccc3c45)CC2)c2ccccc21 [Example 1, (R)-2-{3-[1-(acenaphthen-1-yl)piperidin-4-yl]-2,3-dihydro-2-oxo-benzimidazol-1-yl}-N-methylacetamide] | 0.2 | > 2000
CNC(=O)Cn1c(=O)n(C2CCN([C@@H]3Cc4cccc5cccc3c45)CC2)c2ccccc21 [Example 2, (R)-2-{3-[1-(acenaphthen-1-yl)piperidin-4-yl]-2,3-dihydro-2-oxo-benzimidazol-1-yl}-N-methylacetamide] | 0.2 | 
CNC(=O)Cn1c(=O)n(C2CCN([C@@H]3Cc4cccc5cccc3c45)CC2)c2ccccc21 [Example 6, (R)-2-{3-[1-(acenaphthen-1-yl)piperidin-4-yl]-2,3-dihydro-2-oxo-benzimidazol-1-yl}-N-methylacetamide] | 0.4 | > 2000
CNC(=O)Cn1c(=O)n(C2CCN([C@@H]3Cc4cccc5cccc3c45)CC2)c2ccccc21 [Example 8, (R)-2-{3-[1-(acenaphthen-1-yl)piperidin-4-yl]-2,3-dihydro-2-oxo-benzimidazol-1-yl}-N-methylacetamide] | 2.0 | 
CNC(=O)Cn1c(=O)n(C2CCN([C@@H]3Cc4cccc5cccc3c45)CC2)c2ccccc21 [Example 10, (R)-2-{3-[1-(acenaphthen-1-yl)piperidin-4-yl]-2,3-dihydro-2-oxo-benzimidazol-1-yl}-N-methylacetamide] | 1.3 | 300 (≈ 681 µM)
CNC(=O)Cn1c(=O)n(C2CCN([C@@H]3Cc4cccc5cccc3c45)CC2)c2ccccc21 [Example 16, (R)-2-{3-[1-(acenaphthen-1-yl)piperidin-4-yl]-2,3-dihydro-2-oxo-benzimidazol-1-yl}-N-methylacetamide] |  | 10 (≈ 22.7 µM)
CNC(=O)Cn1c(=O)n(C2CCN([C@@H]3Cc4cccc5cccc3c45)CC2)c2ccccc21 [Example 17, (R)-2-{3-[1-(acenaphthen-1-yl)piperidin-4-yl]-2,3-dihydro-2-oxo-benzimidazol-1-yl}-N-methylacetamide] |  | 10 (≈ 22.7 µM)
